Test results: US4673747A, “Aminoalkylphenoxy derivatives” (Ikeda Mohando Co., Ltd., priority 1984, dated 1987)
Like-named read-outs stand apart in the source and are kept apart here.

How the values were obtained:
[1] = Acute toxicity test on mice dosed orally; parameters: species or system mouse (male ddy); conditions: mouse, in vivo, po, P.O., 14 days observation, read-out: Median lethal dose (LD50)
Procedure: Male ddy mice each having a body weight of about 22 g and which had not eaten for 8 hours were orally dosed with the test samples, and the general symptoms and fatalities were observed from the time immediately following the administration to 14 days after the administration.
The median lethal dose (LD50) was calculated in accordance with the Litchfield and Wilcoxon Method.

[2] = system: Gastric acid secretion induced by histamine; assay: Inhibition effect on gastric acid secretion induced by histamine in pylorus ligated rat (subcutaneous); type: in vivo, rat (male Wistar); conditions: read-out: Secretion of Gastric Acid in Rat, Inhibition Rate (%)
Procedure: A male Wistar rat having a body weight of about 160 g and which had not fed for 24 hours was anesthetized by an intraperitonea dose of 1.2 g/kg of uretane. After ligating of pylorus and esophagus, the gaster anterior was incised and fitted with a double polyethylene cannula. The wall of the stomach was rinsed with 5 ml of saline at 30 minute intervals, and the quantities of gastric acid contained in each rinsing solution were measured by titration.
The basal acid secretion was initially measured three times, and then 0.2 mg/kg or 0.5 mg/kg of each of the compounds of this invention was administered subcutaneously and 3 mg/kg of histamine was administered subcutaneously after the lapse of an additional 30 minutes.
The quantity of gastric acid secreated after the operation was measured continuously for 3 hours. Within that measurement interval, three time points at which the increase in acid secretion reached a maximum level were selected, and the average quantity of gastric acid secreted at those time points was taken as the increase in acid secretion, which was compared with the increase in acid secretion of the control group to calculate the percent inhibition for secretion of gastric acid. [formula] (The result was shown as the average value of five runs.)

[3] = system: Gastric acid secretion induced by histamine; assay: Inhibitory effect of intraduodenally administered compounds on gastric acid secretion induced by histamine in rat; type: in vivo, rat (male Wistar); conditions: for ED50: 0.5 h, read-out: Median effective dose (ED50), Gastric Acid Secretion; for Efficacy Ratio relative to Cimetidine (Cimetidine = 1): from ED50; for ED50 value: times as effective as Cimetidine (activity ratio): text discussing Table 2
Histamine H2-Receptor = molecular target: T1, Histamine H2-Receptor (Cavia porcellus, UniProt P47747); parameters: species or system guinea pig (male Hartley); conditions: isolated guinea pig atrium; negative logarithm of molar concentration; heart beats, histamine dose-response; read-out: Antagonistic Action against Histamine H2-Receptor (pA2) Determined by Using Atrium isolated from Guinea Pig (converted)
T1 construct: from tissue; host or cells: isolated atrium of male Hartley guinea pig
Procedure: A male Hartley guinea pig having a body weight of about 400 g was killed by cervical dislocation, and the artrium thereof was isolated and was suspended in an organ bath containing 50 ml of a modified Ringer solution and subjected to a tension of 1 g. The number of heart beats under such condition was recorded using a polygraph.
Initially, from 1×10^-7 mol to 3×10^-4 mol of histamine was allowed to act accumulatively to depict the curve of the dosage-reaction relationship. Likewise, the curve of the dosage of histamine-reaction relationship was depicted in the presence of 5×10^-7 mol to 1×10^-6 mol of the test sample which was injected 3 minutes before. The negative logarithm (pA2) of the molar concentration of the test sample required for moving the curve obtained by single administration of histamine parallel to the right side by a two-times concentration was calculated.

[4] = 0.5 mg/kg SC, histamine 3 mg/kg SC, average of five runs, * p<0.05, ** p<0.01 vs control group
[5] = intraduodenal, 30 minutes before SC histamine, rat

T1 sequence (P47747 whole entry): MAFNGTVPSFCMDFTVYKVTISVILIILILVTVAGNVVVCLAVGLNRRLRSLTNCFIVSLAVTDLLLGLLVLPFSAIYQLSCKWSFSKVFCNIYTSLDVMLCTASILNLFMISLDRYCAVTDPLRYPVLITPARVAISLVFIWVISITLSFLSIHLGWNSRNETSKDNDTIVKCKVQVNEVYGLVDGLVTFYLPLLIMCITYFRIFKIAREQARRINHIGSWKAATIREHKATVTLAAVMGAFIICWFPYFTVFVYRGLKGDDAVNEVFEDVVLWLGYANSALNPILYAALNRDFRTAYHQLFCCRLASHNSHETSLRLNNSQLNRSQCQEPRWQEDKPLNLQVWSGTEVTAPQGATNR

With Nc1cc(NC/C=C\COc2cccc(CN3CCCCC3)c2)nc(=O)[nH]1 [Ex. 13, 4-amino-6-[4-<3-(1-piperidinomethyl)phenoxy>-cis-2-butenylamino]-(1H)-pyrimidin-2-one] the LD50 at 336 h [1] was > 1500 mg/kg, the inhibition in vivo at 0.5 mg/kg [2, 4] was 91% and the ED50 [3, 5] was 0.52 mg/kg. For the same molecule, the “Efficacy Ratio relative to Cimetidine (Cimetidine = 1)” value (from here on “Efficacy Ratio relative to Cimetidine”) ([3]; intraduodenal, rat) was 13.8 and the Kb (Histamine H2-Receptor) was 83.2 nM.

With CNc1n[s+]([O-])nc1NC/C=C\COc1cccc(CN2CCCCC2)c1 (stereo not drawn) [Ex. 16, 3-methylamino-4-[4-<3-(1-piperidinomethyl)phenoxy>-cis-2-butenylamino]-1,2,5-thiadiazole-1-oxide] the LD50 at 336 h [1] was > 1500 mg/kg, the inhibition in vivo at 0.5 mg/kg [2, 4] was 98% and the ED50 [3, 5] was 0.04 mg/kg. For the same molecule, the “Efficacy Ratio relative to Cimetidine” value ([3]; intraduodenal, rat) was 180.0, the “ED50 value: times as effective as Cimetidine (activity ratio)” value (from here on “ED50 value: times … (activity ratio)”) ([3]; intraduodenal, rat) was ~180 times and the Kb (Histamine H2-Receptor) was 2400 nM.

With CN/C(=N/CCSCc1nc[nH]c1C)NC#N [Cimetidine, reference compound] the LD50 at 336 h [1] was 3300 mg/kg, the inhibition in vivo at 0.5 mg/kg ([2]; sc) was 41% and the ED50 ([3]; Rattus norvegicus) was 7.2 mg/kg.

In the case of CNc1c(NC/C=C\COc2cccc(CN3CCCCC3)c2)c(=O)c1=O [Ex. 3, 1-methylamino-2-[4-<3-(1-piperidinomethyl)phenoxy>-cis-2-butenylamino]-cyclobuten-3,4-dione], the LD50 at 336 h [1] is reported as > 1500 mg/kg, the inhibition in vivo at 0.5 mg/kg [2, 4] is reported as 79% and the ED50 [3, 5] is reported as 0.036 mg/kg. The “Efficacy Ratio relative to Cimetidine” value ([3]; intraduodenal, rat) was 200.0, the “ED50 value: times … (activity ratio)” value ([3]; intraduodenal, rat) was ~200 times and the Kb (Histamine H2-Receptor) was 309 nM.

Nc1n[nH]c(=O)nc1NC/C=C\COc1cccc(CN2CCCCC2)c1 [Ex. 9, 6-amino-5-[4-<3-(1-piperidinomethyl)phenoxy>-cis-2-butenylamino]-1,2,4-triazin-3-one] showed an LD50 at 336 h [1] of 1200 mg/kg, an inhibition in vivo at 0.5 mg/kg [2, 4] of 96% and a Kb (Histamine H2-Receptor) of 186 nM.

In the case of CC1CCN(Cc2cccc(OC/C=C\CNc3c(N)c(=O)c3=O)c2)CC1 [Ex. 35, 1-amino-2-[4-{3-<1-(4-methylpiperidino)methyl>phenoxy}-cis-2-butenylamino]-1-cyclobutene-3,4-dione], the inhibition in vivo at 0.2 mg/kg ([2]; 0.2 mg/kg SC, histamine 3 mg/kg SC, average of five runs, * p<0.05, ** p<0.01 vs control group) is reported as 98%, the ED50 [3, 5] is reported as 0.38 mg/kg and the “Efficacy Ratio relative to Cimetidine” value ([3]; intraduodenal, rat) is reported as 18.9. For the same molecule, the Kb (Histamine H2-Receptor) was 263 nM.

With Nc1c(NC/C=C\COc2cccc(CN3CCCCC3)c2)c(=O)c1=O [Ex. 2, 1-amino-2-[4-<3-(1-piperidinomethyl)phenoxy>-cis-2-butenylamino]-1-cyclobuten-3,4-dione] the LD50 at 336 h [1] was > 1500 mg/kg, the inhibition in vivo at 0.5 mg/kg [2, 4] was 98% and the ED50 [3, 5] was 0.046 mg/kg. The “Efficacy Ratio relative to Cimetidine” value ([3]; intraduodenal, rat) was 156.5, the “ED50 value: times … (activity ratio)” value ([3]; intraduodenal, rat) was “about 157 times” and the Kb (Histamine H2-Receptor) was 63.1 nM.

With CNc1n[nH]c(=O)nc1NC/C=C\COc1cccc(CN2CCCCC2)c1 [Ex. 10, 6-methylamino-5-[4-<3-(1-piperidinomethyl)phenoxy>-cis-2-butenylamino]-1,2,4-triazin-3-one] the LD50 at 336 h [1] was > 1500 mg/kg, the inhibition in vivo at 0.5 mg/kg [2, 4] was 103% and the ED50 [3, 5] was 8 mg/kg. For the same molecule, the “Efficacy Ratio relative to Cimetidine” value ([3]; intraduodenal, rat) was 0.9 and the Kb (Histamine H2-Receptor) was 219 nM.
